Reference: US20250333383A1, “N-OXIDE COMPOUNDS AND USE THEREOF” (SK BIOPHARMACEUTICALS CO., LTD., priority 2022, published 2025)

Key:
[1] = test system: Rat Spinal Nerve Ligation Model; assay: Rat Spinal Nerve Ligation (SNL, Chung) model, mechanical allodynia by von Frey filaments; format: in vivo; conditions: 30 mg/kg, p.o., PWT two hours after the treatment
Procedure: Rat Spinal Nerve Ligation Model
Analgesic efficacy was examined through the Spinal Nerve Ligation (SNL) model, also known as the Chung model (Kim and Chung, 1992). SNL model is one of the most frequently used animal models for the assessment of neuropathic pain behavior.
Briefly, the lumbar 5 spinal nerve is ligated with silk suture distal to the dorsal root ganglion. After two weeks of recovery, mechanical allodynia in the affected paw of animals was evaluated using von Frey filaments. Using the Dixons Up-Down method (Chaplan et al, 1994), a pre-drug baseline was taken with allodynia defined as a paw withdrawal threshold (PWT)<4 g. Test compounds (at 30 mg/kg) or vehicle were then orally administered, and PWT was determined two hours after the treatment. Statistical mean values of PWT for vehicle control and drug treatment groups were calculated, and the percent of maximum possible effect (% MPE) value was determined according to the following formula; % MPE=[(post-drug PWT−pre-drug PWT)/(cutoff PWT−pre-drug PWT)]×100.

[2] = target: T1, human Nav1.7 channels (Homo sapiens, UniProt Q15858); assay: hNav1.7 channel assay, whole cell patch clamp, two-pulse protocol; format: cell-based; conditions: TP2 (inactivated phase inhibition), HEK293 cells stably expressing human Nav1.7, read-out: Inhibition activity: percent inhibition on the inactivated state of hNav1.7
T1 construct: host or cells: HEK293
T1 sequence (Q15858 whole entry): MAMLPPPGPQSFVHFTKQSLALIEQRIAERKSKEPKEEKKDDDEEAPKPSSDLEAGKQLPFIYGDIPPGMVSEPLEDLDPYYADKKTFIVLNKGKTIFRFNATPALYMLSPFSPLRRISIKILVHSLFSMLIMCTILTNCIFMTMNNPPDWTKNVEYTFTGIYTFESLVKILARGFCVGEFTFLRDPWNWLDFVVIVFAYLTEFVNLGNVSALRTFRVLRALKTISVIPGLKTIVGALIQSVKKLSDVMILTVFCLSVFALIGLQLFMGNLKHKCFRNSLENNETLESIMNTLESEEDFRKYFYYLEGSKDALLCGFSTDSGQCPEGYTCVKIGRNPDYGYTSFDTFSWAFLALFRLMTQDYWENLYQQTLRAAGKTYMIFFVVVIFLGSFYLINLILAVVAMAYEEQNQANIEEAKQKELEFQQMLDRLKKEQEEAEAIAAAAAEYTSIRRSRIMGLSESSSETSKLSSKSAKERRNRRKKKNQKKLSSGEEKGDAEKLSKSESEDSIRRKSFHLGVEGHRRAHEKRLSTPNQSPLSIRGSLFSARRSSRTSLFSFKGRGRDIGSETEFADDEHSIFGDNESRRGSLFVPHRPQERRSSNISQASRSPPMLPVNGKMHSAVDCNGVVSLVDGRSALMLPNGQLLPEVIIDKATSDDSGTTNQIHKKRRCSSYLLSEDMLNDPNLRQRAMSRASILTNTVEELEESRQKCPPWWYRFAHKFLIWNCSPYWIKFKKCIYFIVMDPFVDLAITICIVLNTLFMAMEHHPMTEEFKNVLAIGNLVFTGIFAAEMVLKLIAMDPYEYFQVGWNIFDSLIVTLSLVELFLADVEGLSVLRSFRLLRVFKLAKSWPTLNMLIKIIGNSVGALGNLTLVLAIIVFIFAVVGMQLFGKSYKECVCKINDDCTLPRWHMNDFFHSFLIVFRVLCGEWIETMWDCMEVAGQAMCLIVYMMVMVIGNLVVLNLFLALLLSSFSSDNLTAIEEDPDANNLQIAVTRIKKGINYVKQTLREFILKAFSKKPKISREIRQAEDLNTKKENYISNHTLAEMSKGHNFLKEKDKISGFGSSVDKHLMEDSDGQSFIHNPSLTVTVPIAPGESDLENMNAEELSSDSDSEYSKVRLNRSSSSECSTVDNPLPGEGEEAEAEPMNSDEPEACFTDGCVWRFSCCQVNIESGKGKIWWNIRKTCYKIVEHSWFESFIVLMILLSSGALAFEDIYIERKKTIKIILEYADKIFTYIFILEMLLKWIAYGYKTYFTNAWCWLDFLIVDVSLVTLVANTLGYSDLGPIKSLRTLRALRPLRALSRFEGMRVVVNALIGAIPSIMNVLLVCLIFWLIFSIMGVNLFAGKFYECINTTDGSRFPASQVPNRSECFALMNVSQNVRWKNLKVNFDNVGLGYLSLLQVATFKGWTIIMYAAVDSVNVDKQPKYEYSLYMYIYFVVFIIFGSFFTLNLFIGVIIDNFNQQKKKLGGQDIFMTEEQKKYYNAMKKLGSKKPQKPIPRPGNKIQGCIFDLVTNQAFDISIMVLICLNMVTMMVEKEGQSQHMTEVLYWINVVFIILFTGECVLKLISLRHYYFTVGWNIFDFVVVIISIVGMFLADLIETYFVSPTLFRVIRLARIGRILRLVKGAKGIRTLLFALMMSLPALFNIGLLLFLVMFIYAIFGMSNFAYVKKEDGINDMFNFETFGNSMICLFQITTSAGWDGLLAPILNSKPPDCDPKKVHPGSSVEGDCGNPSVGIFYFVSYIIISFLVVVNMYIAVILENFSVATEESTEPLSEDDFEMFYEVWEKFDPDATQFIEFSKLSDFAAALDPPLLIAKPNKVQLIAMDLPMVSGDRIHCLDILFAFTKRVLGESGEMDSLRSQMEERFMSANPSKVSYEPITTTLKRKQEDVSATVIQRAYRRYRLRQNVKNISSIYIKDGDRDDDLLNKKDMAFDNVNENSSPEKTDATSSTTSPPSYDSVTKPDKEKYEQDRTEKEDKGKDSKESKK
From the text: Whole cell patch clamp technique was used to investigate the inhibitory effects of the compound of Examples on human Nav1.7 channels, stably expressed in HEK293 cells. Human Nav1.7 recombinant cell line (CYL3011-precisION) was purchased from Eurofins.
Two-pulse protocol was used every 10 seconds to assess the state-dependent inhibition by Examples. From the holding potential of −90 mV, pre-pulse (200 ms at −120 mV) was followed by test pulse1 ([…]), then test pulse2 (TP2: 20 ms at 0 mV) was evoked after inter-pulse (20 ms at −100 mV).
Peak current amplitudes were measured for test pulses TP1 (resting phase inhibition) and TP2 (inactivated phase inhibition). The following solutions were used for screening assay: External (mM): 145 NaCl, 1 MgCl2, 1.8 CaCl2, 10 Hepes, 5 Glucose, pH 7.4, 300 mOsm; Internal (mM): 120 CsF, 10 NaCl, 10 EGTA, 10 HEPES, pH 7.2, 290 mOsm.
The inhibition on the inactivated state of hNav1.7 was calculated as: % inhibition (inactivation state)=(1−(ITP2, TA/ITP2, Control)×100%, where ITP2 (the inward peak Na+ currents), Control and ITP2, TA were elicited by the TP2 in control (vehicle only) and in the presence of a test article (TA) indicating Examples, respectively.

Structure (SMILES) | in vivo efficacy: % MPE [1] | inhibition at 10 µM [2]
O=C(NCc1cccc[n+]1[O-])c1cc(-c2ccc(Cl)cc2)ccc1F [Example 51, 5-(4-chlorophenyl)-2-fluoro-N-[(1-oxidopyridin-1-ium-2-yl)methyl]benzamide] | +++ (+++: 70-100%) | 70 to 100%
Cc1cc(-c2cccc(C(=O)NCc3cccc[n+]3[O-])c2)ccc1F [Example 22, 3-(4-fluoro-3-methyl-phenyl)-N-[(1-oxidopyridin-1-ium-2-yl)methyl]benzamide] | + (+: 10-40%,) | 40 to 70%
O=C(NCc1cccc[n+]1[O-])c1cccc(-c2ccc(F)c(F)c2)c1 [Example 19, 3-(3,4-difluorophenyl)-N-[(1-oxidopyridin-1-ium-2-yl)methyl]benzamide] | ++ (++: 40-70%,) | 40 to 70%
O=C(NCc1cccc[n+]1[O-])c1cccc(-c2ccc(OC(F)(F)F)cc2)c1 [Example 3, N-[(1-oxidopyridin-1-ium-2-yl)methyl]-3-[4-(trifluoromethoxy)phenyl]benzamide] | ++ (++: 40-70%,) | 70 to 100%
O=C(NCc1cccc[n+]1[O-])c1cccc(-c2cc(F)c(F)c(F)c2)c1 [Example 33, N-[(1-oxidopyridin-1-ium-2-yl)methyl]-3-(3,4,5-trifluorophenyl)benzamide] | – | 10 to 40%
O=C(NCc1cccc[n+]1[O-])c1cccc(-c2ccc(Cl)cc2)c1 [Example 2, 3-(4-chlorophenyl)-N-[(1-oxidopyridin-1-ium-2-yl)methyl]benzamide] | +++ (+++: 70-100%) | 70 to 100%
O=C(NCc1cccc[n+]1[O-])c1cccc(-c2ccc(C(F)(F)F)cc2F)c1 [Example 16, 3-[2-fluoro-4-(trifluoromethyl)phenyl]-N-[(1-oxidopyridin-1-ium-2-yl)methyl]benzamide] | – | 40 to 70%
Cc1ccc(-c2cccc(C(=O)NCc3cccc[n+]3[O-])c2)cc1 [Example 14, N-[(1-oxidopyridin-1-ium-2-yl)methyl]-3-(p-tolyl)benzamide] | ++ (++: 40-70%,) | 40 to 70%
O=C(NCc1cccc[n+]1[O-])c1cccc(-c2ccc(C(F)(F)F)cc2C(F)(F)F)c1 [Example 11, 3-[2,4-bis(trifluoromethyl)phenyl]-N-[(1-oxidopyridin-1-ium-2-yl)methyl]benzamide] | – | 70 to 100%
O=C(NCc1cccc[n+]1[O-])c1cccc(-c2ccccc2C(F)(F)F)c1 [Example 21, N-[(1-oxidopyridin-1-ium-2-yl)methyl]-3-[2-(trifluoromethyl)phenyl]benzamide] | – | 40 to 70%
COc1cc(-c2cccc(C(=O)NCc3cccc[n+]3[O-])c2)ccc1C(F)(F)F [Example 49, 3-[3-methoxy-4-(trifluoromethyl)phenyl]-N-[(1-oxidopyridin-1-ium-2-yl)methyl]benzamide] | – | 70 to 100%
O=C(NCc1cccc[n+]1[O-])c1cccc(-c2ccc(F)cc2)c1 [Example 18, 3-(4-fluorophenyl)-N-[(1-oxidopyridin-1-ium-2-yl)methyl]benzamide] | – | 40 to 70%
O=C(NCc1cccc[n+]1[O-])c1cc(-c2ccc(C(F)(F)F)c(F)c2)ccc1F [Example 60, 2-fluoro-5-[3-fluoro-4-(trifluoromethyl)phenyl]-N-[(1-oxidopyridin-1-ium-2-yl)methyl]benzamide] | – | 70 to 100%
CC(C)(O)c1ccc(-c2cccc(C(=O)NCc3cccc[n+]3[O-])c2)cc1 [Example 44, 3-[4-(1-hydroxy-1-methyl-ethyl)phenyl]-N-[(1-oxidopyridin-1-ium-2-yl)methyl]benzamide] | – | 70 to 100%
O=C(NCc1cccc[n+]1[O-])c1cccc(-c2cccc(F)c2F)c1 [Example 34, 3-(2,3-difluorophenyl)-N-[(1-oxidopyridin-1-ium-2-yl)methyl]benzamide] | – | 10 to 40%
Cc1cccc(-c2cccc(C(=O)NCc3cccc[n+]3[O-])c2)c1 [Example 23, 3-(m-tolyl)-N-[(1-oxidopyridin-1-ium-2-yl)methyl]benzamide] | – | 40 to 70%
O=C(NCc1cccc[n+]1[O-])c1cc(-c2ccc(OC(F)(F)F)cc2)ccc1F [Example 58, 2-fluoro-N-[(1-oxidopyridin-1-ium-2-yl)methyl]-5-[4-(trifluoromethoxy)phenyl]benzamide] | – | 70 to 100%
O=C(NCc1cccc[n+]1[O-])c1cccc(-c2ccc(Cl)cc2Cl)c1 [Example 9, 3-(2,4-dichlorophenyl)-N-[(1-oxidopyridin-1-ium-2-yl)methyl]benzamide] | – | 70 to 100%
COc1cc(-c2cccc(C(=O)NCc3cccc[n+]3[O-])c2)cc(C(F)(F)F)c1 [Example 45, 3-[3-methoxy-5-(trifluoromethyl)phenyl]-N-[(1-oxidopyridin-1-ium-2-yl)methyl]benzamide] | – | 10 to 40%
O=C(NCc1cccc[n+]1[O-])c1cccc(-c2cccc(OC(F)(F)F)c2)c1 [Example 8, N-[(1-oxidopyridin-1-ium-2-yl)methyl]-3-[3-(trifluoromethoxy)phenyl]benzamide] | – | 40 to 70%
O=C(NCc1cccc[n+]1[O-])c1cccc(-c2cc(F)cc(C(F)(F)F)c2)c1 [Example 41, 3-[3-fluoro-5-(trifluoromethyl)phenyl]-N-[(1-oxidopyridin-1-ium-2-yl)methyl]benzamide] | – | 10 to 40%
